Conditions: solid state form

SMILES: CC(C)(C)c1[nH]cnc1/C=c1\[nH]c(=O)/c(=C/c2ccccc2)[nH]c1=O [Plinabulin Form G]
- stability upon exposure to humidity (upon exposure to humidity): shows stability
- stability upon heating (upon heating): shows stability
